The values below come from patent EP4692062A1, “NOVEL AMIDE-BASED COMPOUND AND COMPOSITION COMPRISING SAME” (Amorepacific Corporation, priority 2023, dated 2024).

Assay type in all cases: biochemical
Test [1] deals with T1, MMP-2 (Homo sapiens, UniProt P08253).
T1 construct: purchased Abchem (so in the source)
T1 sequence (P08253 110-660): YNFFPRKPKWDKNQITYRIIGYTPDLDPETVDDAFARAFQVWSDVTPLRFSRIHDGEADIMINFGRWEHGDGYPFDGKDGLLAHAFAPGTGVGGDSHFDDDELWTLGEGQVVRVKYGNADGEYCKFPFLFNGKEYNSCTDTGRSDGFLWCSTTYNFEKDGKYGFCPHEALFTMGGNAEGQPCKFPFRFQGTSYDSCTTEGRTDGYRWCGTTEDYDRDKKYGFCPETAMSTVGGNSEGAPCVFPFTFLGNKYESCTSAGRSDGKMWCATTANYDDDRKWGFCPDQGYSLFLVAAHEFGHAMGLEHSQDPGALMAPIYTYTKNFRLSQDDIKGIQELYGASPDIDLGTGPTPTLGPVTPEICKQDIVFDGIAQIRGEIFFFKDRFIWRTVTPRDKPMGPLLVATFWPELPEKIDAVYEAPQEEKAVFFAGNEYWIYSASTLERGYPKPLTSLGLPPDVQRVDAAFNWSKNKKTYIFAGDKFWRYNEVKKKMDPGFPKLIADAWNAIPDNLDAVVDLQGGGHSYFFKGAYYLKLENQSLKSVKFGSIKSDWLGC
The test is described as follows: MMP2 Inhibitor Screening Assay Kit (ab139446), colorimetric thiopeptide substrate, OD412. The following applies: remaining enzyme activity, untreated group = 100%; compound at 50 nM; n=2. As for the experimental part: Enzyme activity (%) at the same concentration was compared with treatment with 0.5 µM MMP-1 activity and 50 nM MMP-2 and MMP-9 activity (n=2). Here, enzyme activity (%) refers to the enzyme activity (%) of the experimental group when the untreated group is considered to have 100% enzyme activity. To evaluate the effect of the new compound on the enzyme activity, the color change was measured by following the provided protocol using a kit sold by Abchem as follows. […] Therefore, the change in OD412 level (OD value) per minute was measured and the value was obtained according to the enzyme activity calculation formula below. […] (ε=13,600 M^-1cm^-1 above pH 6.0) New compound enzyme activity(%) = (Vnew compound/Vuntreated group)*100 [formula] V = change in OD value per minute

Test [2] has as its target T1, MMP-2. The description is as above. Particulars: T-05~20 at 10 uM; for inhibition at 10 µM: read-out: MMP-2 (%) (inhibitory efficacy, high concentration); for remaining activity at 10 µM: remaining enzyme activity, read-out: MMP-2 (%) (enzyme activity, high concentration).
Test [3] addresses T2, MMP-1 (Homo sapiens, UniProt P03956).
T2 construct: purchased Abchem (so in the source)
T2 sequence (P03956 100-269 limits assumed): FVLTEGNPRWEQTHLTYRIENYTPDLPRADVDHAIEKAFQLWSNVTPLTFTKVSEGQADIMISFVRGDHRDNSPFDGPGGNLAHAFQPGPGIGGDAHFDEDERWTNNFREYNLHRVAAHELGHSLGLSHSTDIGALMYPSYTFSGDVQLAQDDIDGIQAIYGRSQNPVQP
The test is described as follows: MMP1 Inhibitor Screening Assay Kit (ab139443), colorimetric thiopeptide substrate, OD412. The following applies: for inhibition at 10 µM / remaining activity at 10 µM: T-05~20 at 10 uM; for inhibition at 10 µM: read-out: MMP-1 (%) (inhibitory efficacy, high concentration); for remaining activity at 0.5 µM / remaining activity at 10 µM: remaining enzyme activity; for remaining activity at 0.5 µM: untreated group = 100%, compound at 0.5 uM, n=2; for remaining activity at 10 µM: read-out: MMP-1 (%) (enzyme activity, high concentration). As for the experimental part:
Enzyme activity (%) at the same concentration was compared with treatment with 0.5 µM MMP-1 activity and 50 nM MMP-2 and MMP-9 activity (n=2). Here, enzyme activity (%) refers to the enzyme activity (%) of the experimental group when the untreated group is considered to have 100% enzyme activity.
To evaluate the effect of the new compound on the enzyme activity, the color change was measured by following the provided protocol using a kit sold by Abchem as follows.
As MMP activity increases, the substrate is decomposed and the OD412 level increases. Therefore, the change in OD412 level (OD value) per minute was measured and the value was obtained according to the enzyme activity calculation formula below. […] (ε=13,600 M^-1cm^-1 above pH 6.0)
New compound enzyme activity(%) = (Vnew compound/Vuntreated group)*100 [formula] V = change in OD value per minute

Test [4] addresses T3, MMP-9 (Homo sapiens, UniProt P14780).
T3 construct: purchased Abchem (so in the source)
The test is described as follows: MMP9 Inhibitor Screening Assay Kit (ab139448), colorimetric thiopeptide substrate, OD412. The following applies: compound at 50 nM; for remaining activity at 0.05 µM: remaining enzyme activity, untreated group = 100%, n=2; for inhibition at 0.05 µM: read-out: MMP-9 (%) at 50 nM (inhibitory activity). As for the experimental part:
Enzyme activity (%) at the same concentration was compared with treatment with 0.5 µM MMP-1 activity and 50 nM MMP-2 and MMP-9 activity (n=2). Here, enzyme activity (%) refers to the enzyme activity (%) of the experimental group when the untreated group is considered to have 100% enzyme activity. To evaluate the effect of the new compound on the enzyme activity, the color change was measured by following the provided protocol using a kit sold by Abchem as follows. Enzyme activity was obtained by comparing absorbance per minute with the untreated group. • MMP1 Inhibitor Screening Assay Kit (ab139443) • MMP2 Inhibitor Screening Assay Kit (ab139446) • MMP9 Inhibitor Screening Assay Kit (ab139448) As MMP activity increases, the substrate is decomposed and the OD412 level increases. Therefore, the change in OD412 level (OD value) per minute was measured and the value was obtained according to the enzyme activity calculation formula below. Here, OD412 means optical density or absorbance at 412 nm. • Thiopeptide (Ac-PLG-[2-mercapto-4-methyl-pentanoyl]-LG-OC2H5) as a chromogenic substrate. • The MMP cleavage site peptide bond was replaced by the thioester bond of the thiopeptide. • Hydrolysis of this bond by MMP generates a sulfhydryl group, which reacts with DTNB [5,5'-dithiobis(2-nitrobenzoic acid), Ellman's reagent] to form 2-nitro-5-thiobenzoic acid. , which can be measured by its absorbance at 412 nm. (ε=13,600 M^-1cm^-1 above pH 6.0) New compound enzyme activity(%) = (Vnew compound/Vuntreated group)*100 [formula] V = change in OD value per minute

T3 sequence (P14780 94-707): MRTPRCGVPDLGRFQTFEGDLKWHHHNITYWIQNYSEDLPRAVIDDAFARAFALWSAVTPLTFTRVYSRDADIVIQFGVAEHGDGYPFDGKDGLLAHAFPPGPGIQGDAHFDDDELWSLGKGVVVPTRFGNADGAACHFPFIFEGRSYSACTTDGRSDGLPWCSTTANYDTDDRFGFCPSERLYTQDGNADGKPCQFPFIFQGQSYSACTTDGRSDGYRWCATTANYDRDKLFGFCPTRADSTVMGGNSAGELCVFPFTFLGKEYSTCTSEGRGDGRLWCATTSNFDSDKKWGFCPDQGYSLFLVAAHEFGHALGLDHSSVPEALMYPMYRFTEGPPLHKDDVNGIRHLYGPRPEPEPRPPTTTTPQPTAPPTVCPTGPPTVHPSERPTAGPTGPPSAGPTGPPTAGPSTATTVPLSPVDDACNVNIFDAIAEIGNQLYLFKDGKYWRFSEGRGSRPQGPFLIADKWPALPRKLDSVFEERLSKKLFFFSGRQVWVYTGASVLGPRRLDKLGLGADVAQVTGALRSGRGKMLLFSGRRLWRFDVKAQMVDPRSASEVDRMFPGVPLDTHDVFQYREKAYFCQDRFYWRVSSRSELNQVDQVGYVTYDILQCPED

As to `Cc1cc(C)c(S(=O)(=O)NC(CC(C)C)C(=O)NO)c(C)c1` (stereo not drawn) [T-15, N-hydroxy-4-methyl-2-((2,4,6-trimethylphenyl)sulfonamido)pentanamide], the remaining activity at 0.05 µM in test [1] and in test [4] was 100% in each case. The figures for the inhibition at 10 µM in test [2] and in test [3] were 34.8% and 0%, respectively. Moreover, the remaining activity at 10 µM in test [2] amounted to 65.2%; in test [3] it was 100%. Also, the remaining activity at 0.5 µM in test [3] worked out at 100%.

In test [4], `CC(C)CC(NS(=O)(=O)c1ccc(-c2ccccc2)cc1)C(=O)NO` (stereo not drawn) [T-12, 2-([1,1'-biphenyl]-4-sulfonamido)-N-hydroxy-4-methylpentanamide] had a remaining activity at 0.05 µM of 70.6%.

Turning to `Cc1cc(C)c(S(=O)(=O)N2CCCCC2C(=O)NO)c(C)c1` (stereo not drawn) [T-05, N-hydroxy-1-(mesitylsulfonyl)piperidine-2-carboxamide], the remaining activity at 0.05 µM in test [1] was 100%. In test [2], the inhibition at 10 µM was 15.8% and the remaining activity at 10 µM was 84.2%. Besides, in test [3], the inhibition at 10 µM is 8.3%, the remaining activity at 0.5 µM came out at 100% and the remaining activity at 10 µM is 91.7%. The remaining activity at 0.05 µM in test [4] came out at 100%.

In the case of `CC(=NO)c1ccc(S(=O)(=O)N2CCCCC2C(=O)NO)cc1` (stereo not drawn) [T-35, N-hydroxy-1-((4-(1-(hydroxyimino)ethyl)phenyl)sulfonyl)piperidine-2-carboxamide], the remaining activity at 0.05 µM in test [4] stood at 19.9%.

For `CCCc1ccc(S(=O)(=O)N2CCCCC2C(=O)NO)cc1` (stereo not drawn) [T-24, N-hydroxy-1-((4-propylphenyl)sulfonyl)piperidine-2-carboxamide], the remaining activity at 0.05 µM in test [1] amounted to 57.7%; in test [4], 99%. The remaining activity at 0.5 µM in test [3] came to 78.4%.

In test [1], `Cc1cc(C)c(S(=O)(=O)NC(C(=O)NO)C(C)C)c(C)c1` (stereo not drawn) [T-20, N-hydroxy-3-methyl-2-((2,4,6-trimethylphenyl)sulfonamido)butanamide] gave a remaining activity at 0.05 µM of 97.8%. Moreover, in test [2], the inhibition at 10 µM came to 59.9% and the remaining activity at 10 µM turned out to be 40.1%. In addition, in test [3], the inhibition at 10 µM was found to be 0%, the remaining activity at 0.5 µM came out at 100% and the remaining activity at 10 µM was 100%. In addition, in test [4], the inhibition at 0.05 µM was found to be 0% and the remaining activity at 0.05 µM is 100%.

For `CC(C)C(NS(=O)(=O)c1ccc(C(C)(C)C)cc1)C(=O)NO` (stereo not drawn) [T-18, 2-((4-(tert-butyl)phenyl)sulfonamido)-N-hydroxy-3-methylbutanamide], in test [1], the remaining activity at 0.05 µM worked out at 99.9%. For the same compound, in test [2], the inhibition at 10 µM stood at 0% and the remaining activity at 10 µM worked out at 100%. In test [3], the inhibition at 10 µM worked out at 0%, the remaining activity at 0.5 µM was determined as 100% and the remaining activity at 10 µM came out at 100%. The same compound had a remaining activity at 0.05 µM in test [4] of 100%.

For `CC(C)CC(NS(=O)(=O)c1ccc(C(C)(C)C)cc1)C(=O)NO` (stereo not drawn) [T-13, 2-((4-(tert-butyl)phenyl)sulfonamido)-N-hydroxy-4-methylpentanamide], in test [1], the remaining activity at 0.05 µM was 100%. Further, in test [2], the inhibition at 10 µM is 71.9% and the remaining activity at 10 µM is 28.1%. Also, in test [3], the inhibition at 10 µM came out at 0%, the remaining activity at 0.5 µM came to 100% and the remaining activity at 10 µM turned out to be 100%. Besides, in test [4], the remaining activity at 0.05 µM came to 100%.

For `CC(=O)Nc1ccc(S(=O)(=O)N2CCCC2C(=O)NO)cc1` (stereo not drawn) [T-40, 1-((4-acetamidophenyl)sulfonyl)-N-hydroxypyrrolidine-2-carboxamide], the remaining activity at 0.05 µM in test [1] and in test [4] was 100% in each case. This compound also gave a remaining activity at 0.5 µM in test [3] of 100%.

In test [4], `O=C(NO)C1CCCCN1S(=O)(=O)c1ccc(-c2ccccc2)cc1` (stereo not drawn) [T-02, 1-([1,1'-biphenyl]-4-ylsulfonyl)-N-hydroxypiperidine-2-carboxamide] displayed a remaining activity at 0.05 µM of 41.9%.

As to `O=C(NO)C1CCCCN1S(=O)(=O)c1ccccc1` (stereo not drawn) [T-01, N-hydroxy-1-(phenylsulfonyl)piperidine-2-carboxamide], the remaining activity at 0.05 µM was found to be 81.6% in test [1] and 79.1% in test [4]. The compound also displayed a remaining activity at 0.5 µM in test [3] of 34.2%.

As for `CCCCOc1ccc(S(=O)(=O)NC(CC(C)C)C(=O)NO)cc1` (stereo not drawn) [T-14, 2-((4-butoxyphenyl)sulfonamido)-N-hydroxy-4-methylpentanamide], the remaining activity at 0.05 µM turned out to be 0% in test [1] and 73.5% in test [4]. Further, the remaining activity at 0.5 µM in test [3] was found to be 100%. In test [4], the inhibition at 0.05 µM came out at 26.5%.

Turning to `CCCCOc1ccc(S(=O)(=O)N2CCCC2C(=O)NO)cc1` (stereo not drawn) [T-29, 1-((4-butoxyphenyl)sulfonyl)-N-hydroxypyrrolidine-2-carboxamide], the remaining activity at 0.05 µM in test [1] came to 18.9%; in test [4] it was 50.2%. The remaining activity at 0.5 µM in test [3] came to 100%.

As for `CC(C)(C)c1ccc(S(=O)(=O)NC(Cc2ccccc2)C(=O)NO)cc1` (stereo not drawn) [T-08, 2-((4-(tert-butyl)phenyl)sulfonamido)-N-hydroxy-3-phenylpropanamide], the remaining activity at 0.05 µM in test [1] came out at 100%. Also, in test [2], the inhibition at 10 µM was 0% and the remaining activity at 10 µM turned out to be 100%. In addition, in test [3], the inhibition at 10 µM was found to be 12.8%, the remaining activity at 0.5 µM was determined as 100% and the remaining activity at 10 µM was found to be 87.2%. Further, the remaining activity at 0.05 µM in test [4] was 100%.

Consider `CCCCOc1ccc(S(=O)(=O)N2CCCCC2C(=O)NO)cc1` (stereo not drawn) [T-04, 1-((4-butoxyphenyl)sulfonyl)-N-hydroxypiperidine-2-carboxamide], for which, in test [4], the remaining activity at 0.05 µM is 0%.

`O=C(NO)C1CCCCN1S(=O)(=O)c1ccc(F)cc1` (stereo not drawn) [T-21, 1-((4-fluorophenyl)sulfonyl)-N-hydroxypiperidine-2-carboxamide]: the remaining activity at 0.05 µM in test [1] was found to be 81.1%; in test [4], 100%. In addition, the remaining activity at 0.5 µM in test [3] turned out to be 9.2%.

For the compound `CC(C)CC(NS(=O)(=O)c1ccccc1)C(=O)NO` (stereo not drawn) [T-36, N-hydroxy-4-methyl-2-(phenylsulfonamido)pentanamide], the remaining activity at 0.05 µM in test [1] was 100%; in test [4], 97.4%. The remaining activity at 0.5 µM in test [3] was 98.2%.
